In patent publication US11452781B2, “Method of preventing and treating type 1 diabetes, allograft rejection and lung fibrosis (by targeting the ATP/P2X7R axis)” (CHILDREN'S MEDICAL CENTER CORPORATION, priority 2013, dated 2022):
Entries after “also recorded” stand apart in the source; their conditions may differ.

Columns and labels:
[1] = tested on: splenocytes of cardiac-transplanted mice; assay: Immune profiling of cardiac-transplanted mice (ELISPOT with BALB/c irradiated splenocytes, flow cytometry); format: in vivo, mouse
Description: To evaluate the effect of P2X7R targeting on the immune system of cardiac-transplanted mice, splenocytes were harvested at days 7 and 100 post-transplantation and were challenged with BALB/c irradiated splenocytes in an ELISPOT assay.
The effect of P2X7R targeting in preventing cardiac transplant rejection was tested by using the P2X7R inhibitor oATP. Untreated C57BL/6 mice transplanted with BALB/c hearts (fully mismatched) invariably rejected grafts within 7 days (mean survival time of 7 days). P2X7R targeting with the use of the short-term treatment of oATP ([…] oATP intraperitoneally daily for 14 days) induced long-term cardiac transplant survival (>100 days) in 80% of recipients. To evaluate the effect of P2X7R targeting on the immune system of cardiac-transplanted mice, splenocytes were harvested at days 7 and 100 posttransplantation and were challenged with BALB/c irradiated splenocytes in an enzyme-linked immunosorbent spot (ELISPOT) assay. […] The percentages of CD4+ Teffs and CD8+ Teffs were reduced by in vivo short-term P2X7R targeting in mice at days 7 and 100 posttransplantation in comparison with untreated mice.
mice adoptively transferred with naïve C57BL/6 splenocytes, and no protection was observed when splenocytes obtained from mice with long-term graft function were coadoptively transferred with naïve splenocytes. Conversely, prolonged graft survival >50 days was observed when splenocytes obtained from cardiac-transplanted mice with long-term graft function were adoptively transferred. […] The immunocompetence of treated mice at day 100 after transplantation was tested.

naïve CD4+ T-cells [2] = assay: ELISPOT, naïve CD4+ T cells stimulated with anti-CD3-Ig and anti-CD28-Ig; format: cell-based, mouse
Description: (§1) The effect of P2X7R targeting was tested by treatment with oATP during T-cell activation. […] Similarly, in a T-cell proliferation assay, CFSE-labeled naïve CD4^+ T-cells were stimulated for 4 days with 0.5 μg/ml anti-CD3-Ig and anti-CD28-Ig; treatment with 100 μM oATP diminished CD4^+ T-cell proliferation (FIG. 5B, right panel) compared to controls (FIG. 5B, left panel).
To address the mechanisms underlying P2X7R targeting mediated inhibition of cardiac transplant rejection, the inventors analyzed the effect of P2X7R targeting on T-cell activation and Th1/Th17 differentiation in vitro. […] The effect of in vitro P2X7R targeting with oATP during CD4+ T-cell activation was tested. […] Second, in a T-cell proliferation assay, carboxyfluorescein diacetate succinimidyl ester-labeled naïve CD4+ T cells were stimulated for 96 hours with 0.5 μg/mL anti-CD3-Ig and anti-CD28-Ig, and treatment with 100 μM oATP diminished CD4+ T cell proliferation in comparison with controls. […] The inventors next tested the effect of in vitro P2X7R targeting during a Th1/Th17 generation and differentiation assay. […] P2X7R targeting with oATP inhibited Th0 conversion into both Th1 and Th17, as assessed by the percentage of IFN-γ+ and IL-17+ cells, respectively. The inventors show, therefore, that P2X7R targeting through oATP suppresses activation, proliferation, and Th1/Th17 differentiation of CD4+ T cells. The inventors then further investigated the role of P2X7R on T-cell activation and Th1/Th17 differentiation by genetic upregulation of P2X7R. P2X7R cDNA was transduced by using a pMY-IRES-GFP retroviral vector into CD4+ T cells (pmY-P2X7R CD4+ T cells), and upregulation of P2X7R expression was confirmed by Western blot. pmY-P2X7R CD4+ T cells were then challenged with anti-CD3-Ig/anti-CD28-Ig stimulation in an ELISPOT assay. […] In a Th1/Th17 generation assay, pmY-P2X7R CD4+ T cells seemed to display increased differentiation capacity in comparison with pmY-mock CD4+ T cells, as assessed by T-bet and ROR-γ expression.
(§2) Several key components of T-cell receptor signaling involved in the alloimmune response were examined, and the phosphorylation kinetics following in vitro anti-CD3-Ig/anti-CD28-Ig-mediated CD4+ T-cell activation was evaluated by using the Luminex assay. […] The inventors first confirmed that Colivelin (Col) was able to restore the activation-induced phosphorylation of STAT3 in a dose-dependent manner in oATP-treated CD4+ T cells by Western blotting. […] The effect of oATP and Colivelin on STAT3 phosphorylation and T-cell function was also evaluated following cardiac transplantation.

naïve CD4+ T-cells [3] = assay: CFSE T-cell proliferation assay, anti-CD3-Ig/anti-CD28-Ig; format: cell-based, mouse; conditions: 100 μM oATP, 4 days (96 hours)
Description: as §1
To address the mechanisms underlying P2X7R targeting mediated inhibition of cardiac transplant rejection, the inventors analyzed the effect of P2X7R targeting on T-cell activation and Th1/Th17 differentiation in vitro. […] The effect of in vitro P2X7R targeting with oATP during CD4+ T-cell activation was tested. […] Second, in a T-cell proliferation assay, carboxyfluorescein diacetate succinimidyl ester-labeled naïve CD4+ T cells were stimulated for 96 hours with 0.5 μg/mL anti-CD3-Ig and anti-CD28-Ig, and treatment with 100 μM oATP diminished CD4+ T cell proliferation in comparison with controls. […] P2X7R targeting with oATP inhibited Th0 conversion into both Th1 and Th17, as assessed by the percentage of IFN-γ+ and IL-17+ cells, respectively. […] In a Th1/Th17 generation assay, pmY-P2X7R CD4+ T cells seemed to display increased differentiation capacity in comparison with pmY-mock CD4+ T cells, as assessed by T-bet and ROR-γ expression.

STAT3 = STAT3 phosphorylation in CD4+ T cells of cardiac-transplanted mice (Western blot); format: in vivo, mouse; conditions: 7 days after transplantation
Description: as §2

NOD mice = assay: Diabetes onset in NOD mice (prevention); format: in vivo, mouse
Description: Untreated NOD mice invariably developed diabetes by 15-20 weeks of age (FIGS. 5A-5E). […] Rapamycin (0.1 mg/kg for 10 days) treatment was again synergistic with oATP treatment, inducing a further delay in the onset of diabetes (FIG. 7) with 70% of mice protected from diabetes at 25 weeks, while rapamycin treatment alone was ineffective in delaying diabetes in NOD mice (FIG. 7). This group of experiments confirmed that the ATP/P2X7R axis is indeed relevant to allo- and autoimmune responses in vivo and that P2X7R targeting can be viewed as a novel strategy to curb both responses.
Consequently, NOD mice were treated with oATP.

[4] = tested on: P2X7R−/− mice transplanted with BALB/c hearts; assay: Cardiac transplantation into P2X7R-/- mice; format: in vivo, mouse; conditions: P2X7R−/− recipients
Excerpt: oATP has been proposed to exert secondary immunomodulatory mechanisms, primarily related to the inhibition of the remaining P2XsR. To verify that the effect on the prevention of cardiac transplant rejection was predominantly due to P2X7R inhibition, the P2X7R−/− C57BL/6 mouse model was used. BALB/c hearts were transplanted into P2X7R−/− mice, and cardiac transplant survival was compared with that of wild-type recipients.

[5] = tested on: B6 recipients of BALB/c lung allografts; assay: Mouse orthotopic lung transplant, BALB/c donor and C57BL/6 recipient; format: in vivo
Description: Orthotopic left lung transplants were performed as previously described {Bizargity, #22; Iken, #21}. Briefly, donor mice were anesthetized with ketamine and xylazine, intubated with a 22 G Angiocath, and ventilated with isoflurane/oxygen. Lungs were flushed with ice cold phosphate buffered saline, left lung harvested and cuffs placed in the pulmonary artery, pulmonary vein and bronchus. Recipient mice were anesthetized and ventilated with isoflurane/oxygen, and left lung transplants performed via a thoracotomy and implantation of the three-cuffed hilar structures. Transplanted lungs were harvested 15 to 60-70 days following transplantation.
Allografts were evaluated 15, 30, and 60-70 days after transplant.
Outcome Measures—In vivo assessment of transplanted lung function was performed by thoracic CT scan imaging and measuring peak airway pressures (PawP) as previously described {Bizargity, #22}. […] Flow cytometry and enzyme-linked immunosorbent spot assay (ELISPOT) for interferon (IFN)-γ and interleukin (IL)-4 were performed as previously described {Vergani, #25; Vergani, #9}.

periodate-oxidized ATP [oATP]
percentage of Tregs ([1]; day 7): No differences
percentage of Tregs ([1]; day 100): an increase
percentages of CD4+ Teffs and CD8+ Teffs ([1]; days 7 and 100 vs untreated): reduced
IFN-γ-producing cells after ovalbumin immunization (immunocompetence) ([1]; oATP-treated mice at day 100 vs naïve mice): no differences
number of IL-4-producing cells (ELISPOT) ([1]; oATP-treated vs untreated, day 7): increased
number of IFN-γ-producing cells (ELISPOT) ([1]; oATP-treated vs untreated, day 7 (and day 100)): Reduced; also recorded: fewer
percentage of Th17 cells (CD4+IL17+) ([1]; vs untreated, days 7 and 100): similarly reduced; also recorded: fewer
number of IFN-γ-producing CD4+ T-cells (naïve CD4+ T-cells [2]; 100 μM oATP, 24 hours): significantly reduced; also recorded: suppressed
expression levels of the P2XsR (naïve CD4+ T-cells [2]; oATP present during stimulation): not influenced
CD4+ T-cell proliferation (naïve CD4+ T-cells [3]): diminished; also recorded: suppressed
phosphorylated STAT3 in CD4+ T cells (STAT3): reduced levels
delay of diabetes onset (NOD mice; 4-week-old NOD mice, daily i.p. for 30 days (early prevention)): delays diabetes onset
delay of diabetes onset (NOD mice; 10-week-old NOD mice (late prevention)): delay
mice protected from diabetes at 25 weeks of age (NOD mice; 10-week-old NOD mice, oATP 250 μg i.p. daily 14 days, Rapamycin 0.1 mg/kg 10 days): 50%
ability to prolong cardiac transplant survival [4]: severely altered
lung function (PawP) ([5]; 15 to ≥60 days): significantly improved
percentage of Th17 cells ([5]; 15 days): not a significant difference
total number of Th17 cells ([5]; 15 days): reduction; also recorded: fewer
total number of Treg ([5]; 15 days): reduction; also recorded: fewer
BAL ATP levels ([5]; 15 days post transplant): significant reduction
acute rejection, comparison of treatments (FIG. 17) ([5]; 30 days, CSA 10 mg/kg/day, CTLA-4Ig 250 μg, oATP 250 μg/day, Rap 0.1 mg/kg/day): better outcomes than cyclosporine alone; also recorded: more robust as compared to CSA
thoracic CT imaging of left lung allografts ([5]; all three time points): little infiltrate
number of leucocytes and lymphocytes isolated from lung allografts ([5]; day 15, flow cytometry, vs untreated): nearly half; also recorded: significantly fewer
effector memory T cells (CD44highCD62Llow) ([5]; lung allograft T cells): inhibitory effect; also recorded: significant reduction
IFN-γ and IL-4 response of isolated T cells (ELISPOT) ([5]; most pronounced after 15 days): impaired
CD4 and CD8 T cells within lung allografts ([5]; mouse, in vivo): decrease
amount of inflammation (score 0-4) / histology ([5]; mouse, in vivo): remarkable reduction; also recorded: limited disease
percentage of CD8 Tcm (CD8+CD44+CD62L+CCR7+) ([5]; mouse, in vivo): increased
percentage of Treg ([5]; mouse, in vivo): not a remarkable difference
lung allograft survival / function ([5]; oATP daily IP): > 60 days
lung function (PawP) after rescue dosing ([5]; oATP days 15-30): improved; also recorded: significant improvement
